Reference: patent publication US6960300B2, “Process for preparing water soluble diterpenes and their applications” (Sami Labs Limited, priority 2003, dated 2005)
Values after ≈ are worked out from the molar mass of the structure shown.

Tests used:
[1] = Solubility of Forskolin / Isoforskolin in water containing cyclodextrin (HPLC of filtered solution); format: physicochemical
Method: To solubilize Forskolin using cyclodextrins, the chosen cyclodextrin and Forskolin are mixed in water in specific proportions. The aqueous solution is filtered to remove any undissoved particles to obtain a clear aqueous solution of Forskolin in water.
Forskolin (98.5% assay, 25 mg) was added to 1 ml water containing in the dissolved state 500 mg Hydroxy propyl β cyclodextrin, HPBCD, (˜50%) Suspension was agitated at 75 RPM in an isothermal shaker for 60 hours at temperature ˜30° C.
Forskolin (98.5% assay, 50 mg) was added to 1 ml water containing 500 mg Hydroxy propyl γ-cyclodextrin in the dissolved state. (HPGCD) (˜50%). Suspension was agitated at 75 RPM in an isothermal shaker for 60 hours at temperature ˜30° C.
Experiments were performed by “changing” the crystallinity of Forskolin by recrystallizing from methylene chloride and from ethyl acetate. Resulting “amorphous” Forskolin was used for complexation with Hydroxyropyl γ-cyclodextrin HPGCD. Forskolin (29.3 mg) recrystallized with methylene dichloride (Forskolin assay 99.0%) was added to 3 ml water containing 1.5 gram Hydroxy propyl γ-cyclodextrin, HPGCD (˜50%). Suspension was agitated at 75 RPM in an isothermal shaker for 160 hour at temperature 30° C.
Forskolin (30.3 mg) recrystallized with ethyl acetate (Forskolin assay 98.8%) was added to 3 ml water containing 1.5 gram Hydroxy propyl γ-cyclodextrin, HPGCD (˜50%). Suspension was agitated at 75 RPM in an isothermal shaker for 160 hour at temperature 30° C.
Forskolin (98.5% assay, 330 mg) was added to 10 ml water containing 4 g of RAMEBCD (˜40%). Suspension was agitated at 75 RPM in an isothermal shaker for 40 hours at temperature 30° C.
Solubility of Forskolin in water was determined at the different concentrations of RAMEBCD ranging from 5 to 66%.
A typical aqueous formulation of Forskolin with a cyclodextrin is prepared as follows, RAMEBCD, being used as the example of cyclodextrin RAMEBCD (100 g) is taken in a one liter flask with mechanical or magnetic stirring facility. Forskolin (5.5 g) was charged into the flask. Water (400 ml) is charged to the flask and the contents were agitated at room temperature. A clear solution is obtained. If any undissolved Forskolin particles are seen, they are resuspended and stirred. Benzalkonium chloride (50 mg) and Disodium EDTA (500 mg) are added and dissolved in the flask. The pH of the contents could be adjusted to the desired range with the help of 0.1N sodium hydroxide. (usually pH range 3.5 to 7.5). Calculated amount of sodium chloride solution is added to maintain the osmolarity of the solution equivalent to that of 0.9% sodium chloride. The total volume of the solution is made up to 500 ml after sterile filtration. A solution thus prepared has approximately 1% of Forskolin in the dissolved state. Other cyclodextrins also could be used and depending on the cyclodextrin used, the dissolved content of Forskolin in water differed.
Isoforskolin also could be used in place of Forskolin. In one preparation, Isoforskolin (50 mg) was suspended in water containing a suitable amount of a cyclodextrin, for example, R AMEBCD (20 g) in about 100 ml water.

[2] = 25° C.; cited from earlier work
[3] = Determination of the aqueous solubility of Forskolin (intrinsic solubility, HPLC); format: physicochemical
Method: Determination of the aqueous solubility of Forskolin. Forskolin (300 mg) was dried at 105° C. for 6 hours. Dried Forskolin 200 mg was stirred with 100 ml water for 48 hours for the determination of intrinsic solubility at ambient temperatureResulting solution was filtered through 0.45 μm nylon filter and analyzed for the content of Forskolin by HPLC.

[4] = Dissolution in water of Forskolin-RAMEBCD residue obtained by evaporating acetone; format: physicochemical; conditions: Forskolin 50 mg + RAMEBCD 1 gram from acetone, residue in 5 ml water
Method: Alternatively, the cyclodextrin and Forskolin in certain proportions are dissolved in a suitable solvent such as ethanol or acetone or ethyl acetate. The solvent is removed to leave behind a white powder. Such powder freely dissolves in water as the examples will illustrate. Further, additives to the aqueous solution of Forskolin can also be added. These additives are usually used for maintaining sterility, pH maintenance, maintenance of osmolarity etc.
Forskolin (50 mg) was dissolved in 5 ml acetone, and 1 gram of RAMEBCD was dissolved in 5 ml acetone separately. Both the solutions were mixed together and solvent acetone was evaporated under reduced pressure. Residue was dried and dissolved in 5 ml water. This residue dissolved very easily within 1 hour of stirring forming a clear colorless solution.

[5] = system: Intraocular pressure (IOP), ocular hypertension; assay: Anti-glaucoma activity: intraocular pressure (IOP) in rabbits with betamethasone-induced ocular hypertension, non-contact tonometer; format: in vivo, Albino rabbit (New Zealand strain); conditions: for IOP Readings, right eye (treated): average of 6 determinations
Source text: An illustrative example of the biological activity of the preparation is presented. The anti-glaucoma activity of the forskolin composition was studied in albino rabbits. A 1% solution of Forskolin in water as described in example 8 was used for the experiments
Study design: Animal model: Albino rabbit Number of groups: 4 Number of animals in each group: 6 in treatment group and 2 in control group
Materials and methods: Six albino rabbits of New Zealand strain, of both sexes, weighing […] were chosen. The rabbits were housed in clean and well-ventilated open space. Each rabbit was fed with standard diet daily and water was administered ad libitum throughout the study.
Ocular hypertension was induced by the method reported by Bonomi et al (Invest Ophthalmol. 1976 September; 15(9):781-4.) The rabbits were given 0.3 ml subconjunctival injection of Betnesol containing betamethasone sodium 4 mg/ml, every day to each eye for a period of three weeks (the Intraocular pressure (IOP) at third week was maximum as per literature). Local anesthetic propracaine eye drops were used prior to subconjunctival injections.
In each rabbit the left eye was kept as control for glaucoma and the right eye was treated for glaucoma using Forskolin, Timolol, and the placebo.
For each treatment, the IOP readings were measured at intervals of 30 minutes up to 210 minutes using the non-contact tonometer (NCT).

[6] = polyvinylpyrrolidone and polyethyleneglycol-glyceryl tririicinoleate, U.S. Pat. No. 6,346,273; cited from earlier work

## C=C[C@@]1(C)CC(=O)[C@@]2(O)[C@](C)(O1)[C@@H](O)[C@@H](OC(C)=O)C1C(C)(C)CC[C@H](O)[C@@]12C (some centres unmarked) [Isoforskolin]
[1]; RAMEBCD (20 g) in about 100 ml water, room temperature
  Isoforskolin present in filtered solution by HPLC: approximately 0.5%

## OC[C@H]1O[C@@H]2O[C@H]3[C@H](O)[C@@H](O)[C@@H](O[C@H]4[C@H](O)[C@@H](O)[C@@H](O[C@H]5[C@H](O)[C@@H](O)[C@@H](O[C@H]6[C@H](O)[C@@H](O)[C@@H](O[C@H]7[C@H](O)[C@@H](O)[C@@H](O[C@H]8[C@H](O)[C@@H](O)[C@@H](O[C@H]9[C@H](O)[C@@H](O)[C@@H](O[C@H]%10[C@H](O)[C@@H](O)[C@@H](O[C@H]1[C@H](O)[C@H]2O)O[C@@H]%10CO)O[C@@H]9CO)O[C@@H]8CO)O[C@@H]7CO)O[C@@H]6CO)O[C@@H]5CO)O[C@@H]4CO)O[C@@H]3CO [δ-cyclodextrin]
[2]
  Water solubility: 8.19 g/100 ml

## C=C[C@@]1(C)CC(=O)[C@]2(O)[C@@]3(C)[C@@H](O)CCC(C)(C)[C@@H]3[C@H](O)[C@H](OC(C)=O)[C@@]2(C)O1 [Forskolin]
[3]; no cyclodextrin
  Concentration of Forskolin solution in water in the absence of cyclodextrin: about 0.001%
[3]; stirred 48 hours, ambient temperature, 0.45 μm filtered
  Content of Forskolin by HPLC (intrinsic solubility in water): 0.001 % w/v
[3]; thermodynamic from solid, water, stirred 48 hours, ambient temperature, 0.45 μm filtered, read-out: Content of Forskolin by HPLC (intrinsic solubility in water)
  solubility at 48 h: 10 µg/mL (≈ 24.4 µM)
[1]; 5% RAMEBCD
  % Forskolin w/v (solubility in water): 0.09 % w/v
[1]; 10% RAMEBCD
  % Forskolin w/v (solubility in water): 0.272 % w/v
[1]; 15% RAMEBCD
  % Forskolin w/v (solubility in water): 0.767 % w/v
[1]; 20% RAMEBCD
  % Forskolin w/v (solubility in water): 1.15 % w/v
[1]; 40% RAMEBCD
  % Forskolin w/v (solubility in water): 2.746 % w/v
[1]; 53.28% RAMEBCD
  % Forskolin w/v (solubility in water): 4.165 % w/v
[1]; 66.6% RAMEBCD
  % Forskolin w/v (solubility in water): 5.029 % w/v
[1]; Example 8 formulation: RAMEBCD 100 g, Forskolin 5.5 g, made up to 500 ml, room temperature
  Forskolin in the dissolved state in the aqueous formulation: approximately 1%
[4]
  Time of stirring for the residue to dissolve in water forming a clear colorless solution: ≤ 1 h
[5]; 1% solution of Forskolin in water as in example 8
  Anti-glaucoma activity (conclusion): anti-glaucoma activity comparable to Timolol
[5]; time 0 mins
  IOP Readings, right eye (treated): 14 mmHg
[5]; time 30 mins
  IOP Readings, right eye (treated): 7 mmHg
[5]; time 60 mins
  IOP Readings, right eye (treated): 6.5 mmHg
[5]; time 90 mins
  IOP Readings, right eye (treated): 4.5 mmHg
[5]; time 120 mins
  IOP Readings, right eye (treated): 5 mmHg
[5]; time 150 mins
  IOP Readings, right eye (treated): 6 mmHg
[5]; time 180 mins
  IOP Readings, right eye (treated): 7 mmHg
[5]; time 210 mins
  IOP Readings, right eye (treated): 7.5 mmHg
[6]
  Maximum solubility of Forskolin achieved: 0.2%

## CC(C)(C)NC[C@H](O)COc1nsnc1N1CCOCC1 [Timolol]
[5]; time 0 mins
  IOP Readings, right eye (treated): 13 mmHg
[5]; time 30 mins
  IOP Readings, right eye (treated): 8 mmHg
[5]; time 60 mins
  IOP Readings, right eye (treated): 7 mmHg
[5]; time 90 mins
  IOP Readings, right eye (treated): 5 mmHg
[5]; time 120 mins
  IOP Readings, right eye (treated): 4 mmHg
[5]; time 150 mins
  IOP Readings, right eye (treated): 3.5 mmHg
[5]; time 180 mins
  IOP Readings, right eye (treated): 4.5 mmHg
[5]; time 210 mins
  IOP Readings, right eye (treated): 6 mmHg
